In patent US8916183B2, “Pesticidal compositions and processes related thereto” (priority 2012, dated 2014):
Read-outs that look alike come from different tables or passages of the source.

Tests used:
[1] = tested on: Beet Armyworm (BAW) (Spodoptera exigua); assay: Bioassay on beet armyworm (BAW), 128-well diet tray assay; assay type: in vivo; details: Spodoptera exigua, read-out: % Mortality BAW 50 μg/cm^2
Description: (§1) Certain molecules disclosed in this document were tested against BAW and CEW using procedures described in the following examples. In the reporting of the results, the “BAW & CEW Rating Table” was used (See Table Section).
Bioassays on BAW (Spodoptera exigua)
Bioassays on BAW were conducted using a 128-well diet tray assay. […] Trays were covered with a clear self-adhesive cover and held at 25° C., 14:10 light-dark for five to seven days. Percent mortality was recorded for the larvae in each well; activity in the eight wells was then averaged. The results are indicated in the table entitled “Table 5: Biological Results” (See Table Section).

[2] = tested on: Corn Earworm (CEW) (Helicoverpa zea); assay: Bioassay on corn earworm (CEW), 128-well diet tray assay; assay type: in vivo; details: Helicoverpa zea, read-out: % Mortality CEW 50 μg/cm^2
Description: as §1
Bioassays on CEW (Helicoverpa zea)
Bioassays on CEW were conducted using a 128-well diet tray assay. […] Trays were covered with a clear self-adhesive cover and held at 25° C., 14:10 light-dark for five to seven days. Percent mortality was recorded for the larvae in each well; activity in the eight wells was then averaged. The results are indicated in the table entitled “Table 5: Biological Results” (See Table Section).

SMILES	mortality at 50 µg/cm2 ([1]; beet armyworm, 50 μg/cm^2) [%]	mortality at 50 µg/cm2 ([2]; corn earworm, 50 μg/cm^2) [%]	mortality at 50 µg/cm2 [1] [%]	mortality at 50 µg/cm2 [2] [%]
CC(C)c1ccccc1N1/C(=N/N=C/c2ccc(-c3ncn(-c4ccc(OC(F)(F)F)cc4)n3)cc2)SCC1(O)C(F)(F)F (racemic) [Compound 246C]	50 to 100	50 to 100	–	–
COc1cc(C)c(N2C(=O)CSC2=NN=Cc2ccc(-c3ncn(-c4ccc(OC(F)(F)F)cc4)n3)cc2)c(C)c1 (stereo in doubt) [Compound 69C, (Z)-3-(4-methoxy-2,6-dimethylphenyl)-2-((E)-(4-(1-(4-(trifluoromethoxy)phenyl)-1H-1,2,4-triazol-3-yl)benzylidene)hydrazono)thiazolidin-4-one]	50 to 100	50 to 100	–	–
COc1cc(C)c(/N=C(\N/N=C/c2ccc(-c3ncn(-c4ccc(C(F)(F)F)cc4)n3)cc2)SCOC(=O)CNC(=O)OCc2ccccc2)c(C)c1 [Compound 45C]	–	–	50 to 100	50 to 100
COc1cc(C)c(/N=C(/N/N=C/c2ccc(-c3ncn(-c4ccc(OC(F)(F)F)cc4)n3)cc2)SCC(=O)O)c(C)c1 [Compound 48C]	50 to 100	50 to 100	–	–
COc1ccc(/N=C(/N/N=C/c2ccc(-c3ncn(-c4ccc(OC(F)(F)C(F)(F)F)cc4)n3)cc2)SCC(=O)O)c(C)c1 [Compound 50C]	50 to 100	50 to 100	–	–
Cc1cccc(C)c1/N=C(/N/N=C/c1ccc(-c2ncn(-c3ccc(OC(F)(F)F)cc3)n2)cc1)SCC(=O)NC[C@@H]1CCCN(C(=O)OC(C)(C)C)C1 [Compound 56C, (S)-tert-butyl 3-((2-((Z)-(2,6-dimethylphenylimino)-((E)-2-(4-(1-(4-(trifluoromethoxy)phenyl)-1H-1,2,4-triazol-3-yl)benzylidene)hydrazinyl)-methylthio)acetamido)methyl)piperidine-1-carboxylate]	50 to 100	50 to 100	–	–
Cc1cccc(C)c1/N=C(/N/N=C/c1ccc(-c2ncn(-c3ccc(OC(F)(F)F)cc3)n2)cc1)SCC(=O)NCCCN(C)C(=O)OC(C)(C)C [Compound 61C]	–	–	50 to 100	50 to 100
COc1cccc(N2C(=O)CS/C2=N\N=C\c2ccc(-c3ncn(-c4ccc(OC(F)(F)F)cc4)n3)cc2)c1 [Compound 91C]	0	0	–	–
CN(C)c1cccc(N2C(=O)CS/C2=N\N=C\c2ccc(-c3ncn(-c4ccc(OC(F)(F)F)cc4)n3)cc2)c1 [Compound 97C]	50 to 100	50 to 100	–	–
CCOc1cccc(OCC)c1N1C(=O)CS/C1=N\N=C\c1ccc(-c2ncn(-c3ccc(OC(F)(F)F)cc3)n2)cc1 [Compound 98C]	50 to 100	–	–	–
O=C1CS/C(=N\N=C\c2ccc(-c3ncn(-c4ccc(OC(F)(F)F)cc4)n3)cc2)N1c1c(Br)cccc1Br [Compound 99C]	50 to 100	50 to 100	–	–
Cc1cccc(C)c1N1C(=O)CS/C1=N\N=C\c1ccc(-c2ncn(-c3ccc(OC(F)(F)C(F)(F)F)cc3)n2)cc1 [Compound 100C]	50 to 100	50 to 100	–	–
COc1cc(C)c(N2C(=O)CS/C2=N\N=C\c2ccc(-c3ncn(-c4ccc(OC(F)(F)F)cc4)n3)cc2)c(C)n1 [Compound 101C]	50 to 100	50 to 100	–	–
O=C1CS/C(=N\N=C\c2ccc(-c3cn(-c4ccc(OC(F)(F)F)cc4)cn3)cc2)N1c1c(Cl)cccc1Cl [Compound 102C]	50 to 100	50 to 100	–	–
Cc1cccc(C)c1N1C(=O)CS/C1=N\N=C\c1ccc(-c2ccn(-c3ccc(OC(F)(F)F)cc3)n2)cc1 [Compound 103C]	50 to 100	50 to 100	–	–
Cc1cccc(C)c1N1C(=O)CS/C1=N\N=C\c1ccc(-c2cnn(-c3ccc(OC(F)(F)F)cc3)c2)cc1 [Compound 104C]	50 to 100	50 to 100	–	–
Cc1cc(Cl)cc(C)c1N1C(=O)CS/C1=N\N=C\c1ccc(-c2ncn(-c3ccc(OC(F)(F)F)cc3)n2)cc1 [Compound 105C]	50 to 100	50 to 100	–	–
O=C1CS/C(=N\N=C\c2ccc(-c3ncn(-c4ccc(OC(F)(F)F)cc4)n3)cc2)N1c1ccccc1Cl [Compound 106C]	50 to 100	50 to 100	–	–
CCOC(=O)c1ccccc1N1C(=O)CS/C1=N\N=C\c1ccc(-c2ncn(-c3ccc(OC(F)(F)F)cc3)n2)cc1 [Compound 107C]	0	0	–	–
COC(=O)C1CC(c2ccc(/C=N/N=C3\SCC(=O)N3c3c(Cl)cccc3Cl)cc2)=NN1c1ccc(OC(F)(F)F)cc1 (centres unmarked) [Compound 109C]	50 to 100	50 to 100	–	–
COC(=O)C1CC(c2ccc(/C=N/N=C3\SCC(=O)N3c3c(C)cccc3C)cc2)=NN1c1ccc(OC(F)(F)F)cc1 (centres unmarked) [Compound 110C]	50 to 100	50 to 100	–	–
Cc1ccccc1N1C(=O)CS/C1=N\N=C\c1ccc(-c2ncn(-c3ccc(OC(F)(F)F)cc3)n2)cc1 [Compound 113C]	50 to 100	50 to 100	–	–

SMILES	mortality at 50 µg/cm2 ([1]; beet armyworm, 50 μg/cm^2) [%]	mortality at 50 µg/cm2 ([2]; corn earworm, 50 μg/cm^2) [%]	mortality at 50 µg/cm2 [1] [%]	mortality at 50 µg/cm2 [2] [%]
COc1ccc(N2C(=O)CS/C2=N\N=C\c2ccc(-c3ncn(-c4ccc(OC(F)(F)F)cc4)n3)cc2)c(C)c1 [Compound 114C]	50 to 100	50 to 100	–	–
COc1ccc(N2C(=O)CS/C2=N\N=C\c2ccc(-c3ncn(-c4ccc(OC(F)(F)F)cc4)n3)cc2)cc1 [Compound 115C]	0 to 50	0	–	–
CCOc1ccccc1N1C(=O)CS/C1=N\N=C\c1ccc(-c2ncn(-c3ccc(OC(F)(F)F)cc3)n2)cc1 [Compound 116C]	50 to 100	50 to 100	–	–
CC(C)c1ccccc1N1C(=O)CS/C1=N\N=C\c1ccc(-c2ncn(-c3ccc(C(F)(F)F)cc3)n2)cc1 [Compound 120C]	50 to 100	50 to 100	–	–
C/C(=N\N=C1/SCC(=O)N1c1ccccc1CC(C)C)c1ccc(-c2ncn(-c3ccc(OC(F)(F)F)cc3)n2)cc1 [Compound 122C]	50 to 100	50 to 100	–	–
CCc1cccnc1N1C(=O)CS/C1=N\N=C\c1ccc(-c2ncn(-c3ccc(OC(F)(F)F)cc3)n2)cc1 [Compound 123C]	50 to 100	50 to 100	–	–
O=C1CS/C(=N\N=C\c2ccc(-c3ncn(-c4ccc(OC(F)(F)F)cc4)n3)cc2)N1c1ccccc1OC(F)(F)F [Compound 124C]	50 to 100	50 to 100	–	–
CC(C)(C)c1ccccc1N1C(=O)CS/C1=N\N=C\c1ccc(-c2ncn(-c3ccc(OC(F)(F)F)cc3)n2)cc1 [Compound 125C]	50 to 100	50 to 100	–	–
O=C1CS/C(=N\N=C\c2ccc(-c3ncn(-c4ccc(OC(F)(F)F)cc4)n3)cc2)N1c1ccccc1OC(F)F [Compound 126C]	50 to 100	50 to 100	–	–
CC1S/C(=N\N=C\c2ccc(-c3ncn(-c4ccc(OC(F)(F)F)cc4)n3)cc2)N(c2ccccc2C2CC2)C1=O (centres unmarked) [Compound 127C]	50 to 100	50 to 100	–	–
CCCc1ccccc1N1C(=O)C(C)S/C1=N\N=C\c1ccc(-c2ncn(-c3ccc(OC(F)(F)F)cc3)n2)cc1 (centres unmarked) [Compound 128C]	50 to 100	50 to 100	–	–
CC1S/C(=N\N=C\c2ccc(-c3ncn(-c4ccc(OC(F)(F)F)cc4)n3)cc2)N(c2c(Cl)cccc2Cl)C1=O (centres unmarked) [Compound 129C]	50 to 100	50 to 100	–	–
CC1S/C(=N\N=C\c2ccc(-c3ncn(-c4ccc(OC(F)(F)F)cc4)n3)cc2)N(c2c(F)cccc2Cl)C1=O (centres unmarked) [Compound 130C]	50 to 100	50 to 100	–	–
CC(C)c1ccccc1N1CCS/C1=N\N=C\c1ccc(-c2ncn(-c3ccc(C(F)(F)F)cc3)n2)cc1 [Compound 134C]	50 to 100	50 to 100	–	–
Fc1cccc(Cl)c1N1CCS/C1=N\N=C\c1ccc(-c2ncn(-c3ccc(OC(F)(F)F)cc3)n2)cc1 [Compound 143C]	50 to 100	50 to 100	–	–
FC(F)(F)Oc1ccc(-n2cnc(-c3ccc(/C=N/N=C4\SCCN4c4ccccc4-c4ccccc4)cc3)n2)cc1 [Compound 144C]	50 to 100	50 to 100	–	–
Fc1cccc(F)c1N1CCS/C1=N\N=C\c1ccc(-c2ncn(-c3ccc(OC(F)(F)F)cc3)n2)cc1 [Compound 148C]	50 to 100	50 to 100	–	–
FC(F)Oc1ccccc1N1CCS/C1=N\N=C\c1ccc(-c2ncn(-c3ccc(OC(F)(F)F)cc3)n2)cc1 [Compound 152C]	50 to 100	50 to 100	–	–
FC(F)(F)Oc1ccc(-n2cnc(-c3ccc(/C=N/N=C4\SCCN4c4ccccc4OC(F)(F)F)cc3)n2)cc1 [Compound 153C]	0	50 to 100	–	–
CC1CS/C(=N\N=C\c2ccc(-c3ncn(-c4ccc(OC(F)(F)F)cc4)n3)cc2)N1c1c(F)cccc1F (centres unmarked) [Compound 159C]	50 to 100	50 to 100	–	–
CC1CS/C(=N\N=C\c2ccc(-c3ncn(-c4ccc(OC(F)(F)F)cc4)n3)cc2)N1c1c(Cl)cccc1C(F)(F)F (centres unmarked) [Compound 160C]	50 to 100	50 to 100	–	–
CCc1cc(OC)ccc1N1/C(=N/N=C/c2ccc(-c3ncn(-c4ccc(OC(F)(F)C(F)(F)F)cc4)n3)cc2)SCC1(C)O (centres unmarked) [Compound 264C]	50 to 100	–	–	–
